These results are taken from US7943318B2, “Microrna-based methods and compositions for the diagnosis, prognosis and treatment of lung cancer” (The Ohio State University Research Foundation, priority 2006, dated 2011).

The structures appear in SMILES notation.

In assay [1] the test system is miRNA expression in A549 and NCI-H157 lung cancer cells. Nature of the assay: miRNA microarray after treatment with 5-aza-dC and/or TSA. In kind it is cell-based, human. Conditions: 1.0 μM, triplicate. On the procedure:
Microarray analysis was performed as previously described (Liu, C. G., et al., Proc. Natl. Acad. Sci. U.S.A. 101:9740-9744 (2004)). Briefly, 5 μg of total RNA was hybridized with miRNA microarray chips containing 352 probes in triplicate. Specifically, these chips contain gene-specific 40-mer oligonucleotide probes, spotted by contacting technologies and covalently attached to a polymeric matrix, which were generated from 161 human miRNAs, 84 mouse miRNAs, miRNAs from three other species and tRNA. The microarrays were hybridized in 6×SSPE (0.9 M NaCl/60 mM NaH2PO4.H2O/8 mM EDTA, pH 7.4)/30% formamide at 25° C. for 18 hr, washed in 0.75×TNT (Tris.HCl/NaCl/Tween 20) at 37° C. for 40 min, and processed using a method of direct detection of biotin-containing transcripts by streptavidin-Alexa647 conjugate (Molecular Probes, Carlsbad, Calif.). Processed slides were scanned using a PerkinElmer ScanArray XL5K Scanner, with the laser set to 635 nm, at Power 80 and PMT 70 setting, and a scan resolution of 10 μm. An average value of the three spot replicates for each miRNA was normalized and analyzed in BRB-ArrayTools version 3.2.3. After excluding negative values with hybridization intensity below background, normalization was performed by using a per chip on median normalization method and normalization to median array as reference. […]

Assay [2] concerns MYO18B mRNA in lung cancer cell lines (H157, A549). Description: MYO18B mRNA expression after treatment with 5-aza-dC and/or TSA, RT-PCR analysis. In kind it is cell-based, human. The note with it: 1.0 μM, FIG. 12. On the procedure: FIG. 12 depicts the expression of MYO18B mRNA after treatment with 5-aza-dC and/or TSA in two lung cancer cell lines (H157, A549), as determined by RT-PCR analysis. Lane 1, no treatment; lane 2, treatment with 1.0 μM 5-aza-dC for 72 hr; lane 3, treatment with 1.0 μM TSA for 24 hr; lane 4, treatment with 1.0 μM 5-aza-dC for 72 hours, followed by treatment with 1.0 μM TSA for 24 hr. GAPDH expression served as a loading control.
A549 and NCI-H157 lung cancer cells (available from the American Tissue Culture Collection) were incubated with medium containing 1.0 μM 5-aza-dC (Sigma, St. Louis, Mo.) for 48 hr, then were incubated for an additional 24 hr in the presence of 1.0 μM TSA (Sigma, St. Louis, Mo.). Total RNA was isolated with TRIzol® Reagent (Invitrogen), and microarray analysis was performed as described above. Each treatment was performed in triplicate.
miRNA microarrays were used to analyze the expression of various miRNAs upon treatment with 5-aza-2′-deoxycytidine (5-aza-dC), a DNA methylation inhibitor, and/or Trichostatin A (TSA), a potent histone deacteylase inhibitor, in two lung cancer cell lines (A549 and NCI-H157).

In the case of `Nc1ncn([C@H]2C[C@H](O)[C@@H](CO)O2)c(=O)n1` [5-aza-dC, 5-aza-2′-deoxycytidine], the “changes in miRNA expression on microarray after treatment” value in assay [1] is “no miRNAs from the microarray displayed statistically-significant changes in expression”. The “expression of MYO18B (transcriptionally-silenced gene) following treatment” value in assay [2] was “increased expression”.

On to `CC(/C=C/C(=O)NO)=C\[C@@H](C)C(=O)c1ccc(N(C)C)cc1` [TSA, Trichostatin A], for which, in assay [1], the “changes in miRNA expression on microarray after treatment” value is on record as “no miRNAs from the microarray displayed statistically-significant changes in expression”. Besides, in assay [2], the “expression of MYO18B (transcriptionally-silenced gene) following treatment” value was “increased expression”.
